The target of assay [1] is T1, TBK1 (Homo sapiens, UniProt Q9UHD2).
T1 construct: purchased Promega (Invitrogen is also named in the same bracket) V4158; PR8031B; V3991 (not assigned to the two kinases)
T1 sequence (Q9UHD2 1-729): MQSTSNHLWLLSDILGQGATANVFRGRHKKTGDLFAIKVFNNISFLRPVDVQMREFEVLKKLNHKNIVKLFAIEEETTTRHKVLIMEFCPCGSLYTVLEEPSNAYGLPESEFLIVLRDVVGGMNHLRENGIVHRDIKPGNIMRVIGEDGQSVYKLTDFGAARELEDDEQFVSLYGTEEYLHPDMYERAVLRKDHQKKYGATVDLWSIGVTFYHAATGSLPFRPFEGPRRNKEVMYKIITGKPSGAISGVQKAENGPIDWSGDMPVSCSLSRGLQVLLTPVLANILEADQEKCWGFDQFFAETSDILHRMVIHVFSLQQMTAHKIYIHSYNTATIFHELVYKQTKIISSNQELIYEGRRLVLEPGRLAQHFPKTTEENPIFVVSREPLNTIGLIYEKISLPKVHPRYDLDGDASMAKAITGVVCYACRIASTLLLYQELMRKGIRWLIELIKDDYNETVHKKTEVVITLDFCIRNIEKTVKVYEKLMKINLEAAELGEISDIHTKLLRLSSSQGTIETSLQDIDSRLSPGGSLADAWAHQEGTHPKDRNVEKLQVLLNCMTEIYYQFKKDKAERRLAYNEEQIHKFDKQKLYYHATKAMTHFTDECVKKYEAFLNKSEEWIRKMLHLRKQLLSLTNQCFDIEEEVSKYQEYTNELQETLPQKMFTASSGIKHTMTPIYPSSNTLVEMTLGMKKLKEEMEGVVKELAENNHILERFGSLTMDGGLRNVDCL
Nature of the assay: ADP-Glo Kinase Assay, inhibition activity on TBK1. The class given is biochemical. The method, boiled down:
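In 40 mM Tris pH 7.5 with 20 mM MgCl2 and 0.1 mg/mL BSA, each enzyme (IKKε or TBK1 kinase system) was run according to the manufacturer's protocol. ADP formed was detected by ADP-Glo luminescence.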
A general note: ADP-Glo turns the ADP formed in a reaction into a luminescent signal.

Assay [2] deals with T2, IKKε (Homo sapiens, UniProt Q14164).
T2 construct: purchased Promega and/or Invitrogen V4158; PR8031B; V3991 (not assigned to the two kinases)
T2 sequence (Q14164 1-716): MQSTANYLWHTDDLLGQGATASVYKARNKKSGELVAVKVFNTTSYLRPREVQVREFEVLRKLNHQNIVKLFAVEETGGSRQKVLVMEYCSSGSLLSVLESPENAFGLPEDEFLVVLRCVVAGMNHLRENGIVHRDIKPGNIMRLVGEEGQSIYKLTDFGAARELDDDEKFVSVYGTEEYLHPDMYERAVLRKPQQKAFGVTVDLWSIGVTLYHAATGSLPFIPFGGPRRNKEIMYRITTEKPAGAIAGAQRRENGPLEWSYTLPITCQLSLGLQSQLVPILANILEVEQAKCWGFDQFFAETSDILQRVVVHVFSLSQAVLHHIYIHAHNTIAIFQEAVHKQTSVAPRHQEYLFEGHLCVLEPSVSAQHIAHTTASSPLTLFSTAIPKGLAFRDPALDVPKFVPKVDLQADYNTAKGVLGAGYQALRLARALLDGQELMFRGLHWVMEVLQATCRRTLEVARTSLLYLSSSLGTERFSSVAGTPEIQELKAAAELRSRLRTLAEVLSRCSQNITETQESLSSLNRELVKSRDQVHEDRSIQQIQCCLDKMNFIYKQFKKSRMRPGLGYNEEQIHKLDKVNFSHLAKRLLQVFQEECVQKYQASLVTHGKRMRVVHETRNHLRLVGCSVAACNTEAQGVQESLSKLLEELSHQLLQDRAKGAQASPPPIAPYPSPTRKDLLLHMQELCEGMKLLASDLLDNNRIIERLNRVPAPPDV
Nature of the assay: ADP-Glo Kinase Assay, inhibition activity on IKKε. It is filed as biochemical. On the procedure:
Inhibition activities on IKKϵ and TBK1 were evaluated using the compounds of Examples 1 to 250.
The inhibition activities on IKKϵ and TBK1 were measured by a luminometer, IKKϵ/TBK1 Kinase Enzyme System (Promega, Ca# V4158; Invitrogen, PR8031B, Promega, Ca# V3991) and ADP-Glo Kinase Assay using ADP-Glo™ Kinase Analysis Kit (Promega, Ca# V9101) and a kinase reaction buffer [40 mM Tris(pH 7.5), 20 mM MgCl2, 0.1 mg/mL BSA] in accordance with the manufacturer's protocol.

Structures can show the parent of a compound that is named as a salt.

In general, IC50 refers to the concentration that gives 50% inhibition. Higher therefore signals weaker potency in that assay.

For `CCC(CC)NC(=O)N1CC=C(c2c[nH]c3ncc(-c4ccc(CN5CCN(C)CC5)s4)cc23)CC1` [Example 41, 4-(5-(5-((4-Methylpiperazin-1-yl)methyl)thiophen-2-yl)-1H-pyrrolo[2,3-b]pyridin-3-yl)-N-(pentan-3-yl)-3,6-dihydropyridine-1(2H)-carboxamide], the IC50 in assay [1] is 47 nM; in assay [2], 220 nM.
The corresponding values for `CCC(C)NC(=O)N1CC=C(c2c[nH]c3ncc(-c4ccc(CN5CCN(C)CC5)s4)cc23)CC1` (stereo not drawn) [Example 42, N-(sec-butyl)-4-(5-(5-((4-methylpiperazin-1-yl)methyl)thiophen-2-yl)-1H-pyrrolo[2,3-b]pyridin-3-yl)-5,6-dihydropyridine-1(2H)-carboxamide] are 1.9 nM and 62 nM.
The like results for `O=C(NC1CC1)N1CC=C(c2c[nH]c3ncc(-c4ccc(CN5CCNCC5)s4)cc23)CC1` [Example 45, N-cyclopropyl-4-(5-(5-(piperazin-1-ylmethyl)thiophen-2-yl)-1H-pyrrolo[2,3-b]pyridin-3-yl)-5,6-dihydropyridine-1(2H)-carboxamide dihydrochloride] were, in that order, 3.3 nM and 24 nM.
The corresponding values for `CN1CCN(Cc2ccc(-c3cnc4[nH]cc(C5=CCN(C(=O)NC6CC6)CC5)c4c3)cc2)CC1` [Example 46, N-cyclopropyl-4-(5-(4-((4-methylpiperazin-1-yl)methyl)phenyl)-1H-pyrrolo[2,3-b]pyridin-3-yl)-5,6-dihydropyridine-1(2H)-carboxamide] are 14 nM and 25 nM.
Turning to `CN1CCN(Cc2ccc(-c3cnc4[nH]cc(C5=CCN(C(=O)NC6CC6)CC5)c4c3)s2)CC1` [Example 47, N-cyclopropyl-4-(5-(5-((4-methylpiperazin-1-yl)methyl)thiophen-2-yl)-1H-pyrrolo[2,3-b]pyridin-3-yl)-5,6-dihydropyridine-1(2H)-carboxamide], the 50% inhibitory concentration (IC50) in assay [1] turned out to be 3.6 nM; in assay [2] it was 12 nM.
The like results for `O=C(NC1CC1)N1CC=C(c2c[nH]c3ncc(-c4ccc(CN5CCOCC5)s4)cc23)CC1` [Example 48, N-cyclopropyl-4-(5-(5-(morpholinomethyl)thiophen-2-yl)-1H-pyrrolo[2,3-b]pyridin-3-yl)-5,6-dihydropyridine-1(2H)-carboxamide] were, in that order, 8.2 nM and 10 nM.
Turning to `COc1ccc(-c2cnc3[nH]cc(C4=CCN(C(=O)NC5CCCC5)CC4)c3c2)cc1F` [Example 50, N-cyclopentyl-4-(5-(3-fluoro-4-methoxyphenyl)-1H-pyrrolo[2,3-b]pyridin-3-yl)-5,6-dihydropyridine-1(2H)-carboxamide], the figures for the IC50 in assay [1] and in assay [2] were 330 nM and 410 nM, respectively.
Take `CS(=O)(=O)c1cccc(-c2cnc3[nH]cc(C4=CCN(C(=O)NC5CCCC5)CC4)c3c2)c1` [Example 52, N-cyclopentyl-4-(5-(3-(methylsulfonyl)phenyl)-1H-pyrrolo[2,3-b]pyridin-3-yl)-5,6-dihydropyridine-1(2H)-carboxamide]: the figures for the IC50 in assay [1] and in assay [2] were 23 nM and 48 nM, respectively.
As to `CCS(=O)(=O)c1cccc(-c2cnc3[nH]cc(C4=CCN(C(=O)NC5CCCC5)CC4)c3c2)c1` [Example 54, N-cyclopentyl-4-(5-(3-(ethylsulfonyl)phenyl)-1H-pyrrolo[2,3-b]pyridin-3-yl)-3,6-dihydropyridine-1(2H)-carboxamide], the IC50 in assay [1] came out at 32 nM; in assay [2], 84 nM.
The corresponding values for `CCCS(=O)(=O)c1ccc(-c2cnc3[nH]cc(C4=CCN(C(=O)NC5CCCC5)CC4)c3c2)cc1` [Example 55, N-cyclopentyl-4-(5-(4-(propylsulfonyl)phenyl)-1H-pyrrolo[2,3-b]pyridin-3-yl)-5,6-dihydropyridine-1(2H)-carboxamide] are 51 nM and 600 nM.
The like results for `O=C(NC1CCCC1)N1CC=C(c2c[nH]c3ncc(-c4ccc(S(=O)(=O)C5CC5)cc4)cc23)CC1` [Example 56, N-cyclopentyl-4-(5-(4-(cyclopropylsulfonyl)phenyl)-1H-pyrrolo[2,3-b]pyridin-3-yl)-5,6-dihydropyridine-1(2H)-carboxamide] were, in that order, 58 nM and 190 nM.
Take `COc1ccc(-c2cnc3[nH]cc(C4=CCN(C(=O)NC5CCCC5)CC4)c3c2)cc1S(=O)(=O)N1CCOCC1` [Example 63, N-cyclopentyl-4-(5-(4-methoxy-3-(morpholinosulfonyl)phenyl)-1H-pyrrolo[2,3-b]pyridin-3-yl)-5,6-dihydropyridine-1(2H)-carboxamide]: the IC50 in assay [1] stood at 29 nM; in assay [2], 440 nM.
The like results for `O=C(NC1CCCC1)N1CC=C(c2c[nH]c3ncc(-c4ccc(CN5CCOCC5)s4)cc23)CC1` [Example 72, N-cyclopentyl-4-(5-(5-(morpholinomethyl)thiophen-2-yl)-1H-pyrrolo[2,3-b]pyridin-3-yl)-5,6-dihydropyridine-1(2H)-carboxamide] were, in that order, 28 nM and 38 nM.
The like results for `CN1CCN(Cc2ccc(-c3cnc4[nH]cc(C5=CCN(C(=O)NC6COC6)CC5)c4c3)cc2)CC1` [Example 78, 4-(5-(4-((4-Methylpiperazin-1-yl)methyl)phenyl)-1H-pyrrolo[2,3-b]pyridin-3-yl)-N-(oxetan-3-yl)-5,6-dihydropyridine-1(2H)-carboxamide] were, in that order, 15 nM and 55 nM.
In the case of `CN1CCN(Cc2ccc(-c3cnc4[nH]cc(C5=CCN(C(=O)NC6COC6)CC5)c4c3)s2)CC1` [Example 79, 4-(5-(5-((4-Methylpiperazin-1-yl)methyl)thiophen-2-yl)-1H-pyrrolo[2,3-b]pyridin-3-yl)-N-(oxetan-3-yl)-5,6-dihydropyridine-1(2H)-carboxamide], the IC50 turned out to be 320 nM in assay [1] and 28 nM in assay [2].
The like results for `O=C(NC1COC1)N1CC=C(c2c[nH]c3ncc(-c4ccc(CN5CCOCC5)s4)cc23)CC1` [Example 80, 4-(5-(5-(Morpholinomethyl)thiophen-2-yl)-1H-pyrrolo[2,3-b]pyridin-3-yl)-N-(oxetan-3-yl)-5,6-dihydropyridine-1(2H)-carboxamide] were, in that order, 1.2 nM and 3.4 nM.
Regarding `CC(C)NC(=O)N1CCC(c2c[nH]c3ncc(-c4ccc(CN5CCN(C)CC5)cc4)cc23)=CC1C` (stereo not drawn) [Example 86, N-isopropyl-2-methyl-4-(5-(4-((4-methylpiperazin-1-yl)methyl)phenyl)-1H-pyrrolo[2,3-b]pyridin-3-yl)-5,6-dihydropyridine-1(2H)-carboxamide], the IC50 is 2.8 nM in assay [1] and 3.5 nM in assay [2].
Consider `CC(C)NC(=O)N1CCC(c2c[nH]c3ncc(-c4ccc(CN5CCOCC5)s4)cc23)=CC1C` (stereo not drawn) [Example 87, N-isopropyl-2-methyl-4-(5-(5-(morpholinomethyl)thiophen-2-yl)-1H-pyrrolo[2,3-b]pyridin-3-yl)-5,6-dihydropyridine-1(2H)-carboxamide], for which the IC50 in assay [1] is 1 nM; in assay [2] it was 1.5 nM.

(Values after US10239873B2, “7-azaindole or 4,7-diazaindole derivatives as IKKϵ epsilon and TBK1 inhibitor and pharmaceutical composition comprising same” (GREEN CROSS CORPORATION, priority 2015, dated 2019).)
